Laboratory results as given in US12617799B2, “Pyrazolopyrimidinone compounds” (Orphagen Pharmaceuticals, Inc., priority 2021, dated 2026).
Read-outs that look alike come from different tables or passages of the source.

Columns and labels:
human SF-1 = target: T1, human SF-1 (Homo sapiens, UniProt Q13285); assay: SF-1 Luc assay (Gal4DBD-SF-1LBD luciferase reporter in transfected CHO-K1 cells); format: cell-based; conditions: CHO-K1 cells transfected with GAL4-SF-1 plasmid, 40 hours incubation; read-out: hSF-1-Luc: EC50
T1 construct: expressed in transfected cells; host or cells: CHO-K1 cells (Chinese hamster ovary), transient cotransfection with pG5luc
Excerpt: BamHI and XbaI sites introduced by the primers […] (forward) and […] (reverse) were used for subcloning the amplicon into pFA-CMV.
Cells were routinely cultured by splitting them from 1:10 to 1:20. […] Four hours after transfection, cells were trypsinized and suspended to a concentration of 1.6×10^5 cells/ml in supplemented Ham's F-12 media.
Assays: The collected cells were resuspended in the culture medium and plated into a 384 well-white plate (Corning Life Sciences, Acton, MA) at 8,000 cells/50 μL/well.
Measurement of SF-1 Transcriptional Activity: SF-1 transcriptional activity was detected as the intracellular Luc activity using SteadyLite Plus HTS Reporter Gene Assay System. After the measurement of the cell viability, the culture media in the 384 well-plate were completely removed. Then, 30 μL of the Luc substrate solution was added into each well and incubated for 10 min at room temperature. After the incubation, luminescence of each well was measured by a microplate reader.
Calculation of the SF-1 Transcriptional Activity (% of Control): The % of control for the transcriptional activity was calculated according to the following equation: % of control=A/B×100 Equation • A: luminescence count in the test article-treated CHO cells transfected with GAL4-SF-1 plasmid • B: mean luminescence count in the vehicle-treated CHO cells transfected with GAL4-SF-1 plasmid

[1] = test system: rat Leydig tumor cell line R2C; assay: R2C proliferation assay for SF-1 antagonists (EdU incorporation); format: cell-based; conditions: read-out: R2C: EC50
Protocol: SF-1 regulates progenitor cell formation and survival in adult Leydig cells. Anti-proliferative effects of SF-1 antagonists using a SF-1+ rat Leydig tumor cell line, R2C, was investigated. Cell proliferation was measured by detecting DNA incorporation of EdU, a nucleoside analogue that can be fluorescently tagged after cell fixation.
Proliferation of the rat Leydig tumor cell line R2C (ATCC® CCL-97™) was assessed using 5-ethynyl-2′-deoxyuridine (EdU), a nucleoside analogue incorporated during DNA synthesis that can be fluorescently tagged after cell fixation. Cycloheximide, a protein synthesis inhibitor, was used as a positive control for the assay.
R2C cells are maintained according to a protocol provided by the American Type Culture Collection (ATCC). At the time of assay, R2C cells were diluted to 1.0 million cells/mL with culture medium (F12 medium supplemented with 2% FBS and 1% Penicillin-Streptomycin) and 50 uL of cell suspension seeded into each well of 384-well clear bottom plates. The assay plates were incubated in a humidified, 37° C., 6% CO2 atmosphere for 24 hours. Serially diluted SF-1 antagonists, cycloheximide or vehicle (DMSO) were then applied to the R2C cells and incubated in a humidified, 37° C., 6% CO2 atmosphere for two days. EdU (Invitrogen), at a final concentration of 5 μM, was added to the cells and incubated for an additional 16 hours, after which cells were fixed with 10% formalin.
Cells were then washed and permeabilized in 0.5% TritonX-100/PBS solution at RT for 1 hour. EdU incorporation was detected by labeling EdU with 6-FAM azide (Lumiprobe) using a copper (I)-catalyzed Click reaction between an azide and alkyne. The reaction mixture consists of 5 mM ascorbic acid, 1 mM CuSO4, 1 μM 6-FAM azide dissolved in PBS buffer. […] For data normalization, the average fluorescence of DMSO wells was defined as 100%, and average fluorescence of 10 μM cycloheximide wells was defined as 0%. Curve fitting and EC50 determination were performed using the variable slope sigmoidal dose-response analysis.
R2C cells were routinely cultured in R2C culture medium. To assay SF-1 antagonist inhibitory activity, R2C cells were resuspended in the R2C plating medium and plated into a 384 well-clear bottom black plate at 20,000 cells/50 μL/well. […] 10 μL EdU plating solution were then dispensed into each well of assay plate incubated at 37° C., 6% CO2 for two days.
R2C proliferation is measured by detecting the fluorescent labelled EdU. The R2C assay plates were fixed by dispense 60 μL of 10% formalin into each well, and the plates were incubated at room temperature for 1 hour on an orbital shaker. The plates were washed with 80 μL of PBS three times, and cells were permeabilized by treating with 100 μL of PBS-0.5% TritonX-100 at RT for 1 hour on an orbital shaker. The plates were washed with 80 μL of PBS three times, and after the last wash, 25 μL of PBS was dispensed into each well. 25 μL of 2× mounting mix solution was then added into each well of fixed cells, and the plates were incubated at RT for 30 min in the dark on an orbital shaker. The cells were washed with 80 μL of PBS, three times, and after the last wash, 25 μL of PBS was dispensed into each well. […] The cells were washed with 80 μL of PBS, three times, and after the last wash, 50 μL of PBS was dispensed into each well. Assay plates were sealed with aluminum foil, and fluorescence was measured using a Envision microplate reader.
The % of control for the proliferation activity was calculated according to the following equation: % of control=100×(A−C)/(B−C) Equation • A: fluorescence count in the test article-treated R2C cells • B: mean fluorescence count in the vehicle-treated R2C cells • C: mean fluorescence count in the 10 μM cycloheximide-treated R2C cells

T1 sequence (Q13285 198-461 limits assumed): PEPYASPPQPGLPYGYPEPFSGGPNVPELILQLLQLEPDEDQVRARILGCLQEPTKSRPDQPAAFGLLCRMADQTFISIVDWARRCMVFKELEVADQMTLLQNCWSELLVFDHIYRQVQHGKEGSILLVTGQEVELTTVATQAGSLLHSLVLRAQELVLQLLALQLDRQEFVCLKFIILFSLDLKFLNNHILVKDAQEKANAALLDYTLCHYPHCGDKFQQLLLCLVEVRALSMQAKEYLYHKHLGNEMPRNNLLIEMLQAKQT

EC50 (human SF-1) [nM] | EC50 ([1]; R2C cells, EdU incorporation) [nM] | SMILES | EC50 ([1]; R2C) [nM]
< 200 | < 200 | C[C@H](CO)Oc1ccc(NC(=O)Cn2cnc3c(Nc4ccc(C(F)(F)F)cc4)nn(C)c3c2=O)cc1 (single isomer, unassigned) [Compound 25] | –
< 200 | < 200 | C[C@@H](CO)Oc1ccc(NC(=O)Cn2cnc3c(Nc4ccc(C(F)(F)F)cc4)nn(C)c3c2=O)cc1 (single isomer, unassigned) [Compound 26] | –
< 200 | < 200 | COc1ccc(NC(=O)Cn2cnc3c(Nc4ccc(C(F)(F)F)cc4)nn(C)c3c2=O)cc1F [Compound 11, N-(3-fluoro-4-methoxyphenyl)-2-(1-methyl-7-oxo-3-((4-(trifluoromethyl)phenyl)amino)-1,7-dihydro-6H-pyrazolo[4,3-d]pyrimidin-6-yl)acetamide] | –
< 200 | < 200 | Cn1nc(Nc2ccc(C(F)(F)F)cc2)c2ncn(CC(=O)Nc3ccc(C(C)(C)S(C)(=O)=O)cc3)c(=O)c21 [Compound 12, 2-(1-methyl-7-oxo-3-((4-(trifluoromethyl)phenyl)amino)-1,7-dihydro-6H-pyrazolo[4,3-d]pyrimidin-6-yl)-N-(4-(2-(methylsulfonyl)propan-2-yl)phenyl)acetamide] | –
< 200 | 200 to 1000 | Cn1nc(Nc2ccc(C(F)(F)F)cc2)c2ncn(CC(=O)NC3CCOCC3)c(=O)c21 [Compound 13, 2-(1-methyl-7-oxo-3-((4-(trifluoromethyl)phenyl)amino)-1,7-dihydro-6H-pyrazolo[4,3-d]pyrimidin-6-yl)-N-(tetrahydro-2H-pyran-4-yl)acetamide] | –
< 200 | 200 to 1000 | Cn1nc(Nc2ccc(C(F)(F)F)cc2)c2ncn(CC(=O)NCC3CCOCC3)c(=O)c21 [Compound 14, 2-(1-methyl-7-oxo-3-((4-(trifluoromethyl)phenyl)amino)-1,7-dihydro-6H-pyrazolo[4,3-d]pyrimidin-6-yl)-N-((tetrahydro-2H-pyran-4-yl)methyl)acetamide] | –
200 to 1000 | 1000 to 10000 | Cn1nc(Nc2ccc(C(F)(F)F)cc2)c2ncn(CC(=O)NC(C)(C)C3CCOCC3)c(=O)c21 [Compound 15, 2-(1-methyl-7-oxo-3-((4-(trifluoromethyl)phenyl)amino)-1,7-dihydro-6H-pyrazolo[4,3-d]pyrimidin-6-yl)-N-(2-(tetrahydro-2H-pyran-4-yl)propan-2-yl)acetamide] | –
200 to 1000 | 1000 to 10000 | C[C@@H](NC(=O)Cn1cnc2c(Nc3ccc(C(F)(F)F)cc3)nn(C)c2c1=O)C1CCOCC1 [Compound 16, (R)-2-(1-methyl-7-oxo-3-((4-(trifluoromethyl)phenyl)amino)-1,7-dihydro-6H-pyrazolo[4,3-d]pyrimidin-6-yl)-N-(1-(tetrahydro-2H-pyran-4-yl)ethyl)acetamide] | –
< 200 | 200 to 1000 | C[C@H](NC(=O)Cn1cnc2c(Nc3ccc(C(F)(F)F)cc3)nn(C)c2c1=O)C1CCOCC1 [Compound 17, (S)-2-(1-methyl-7-oxo-3-((4-(trifluoromethyl)phenyl)amino)-1,7-dihydro-6H-pyrazolo[4,3-d]pyrimidin-6-yl)-N-(1-(tetrahydro-2H-pyran-4-yl)ethyl)acetamide] | –
< 200 | < 200 | Cc1cc(C(C)(C)S(C)(=O)=O)ccc1NC(=O)Cn1cnc2c(Nc3ccc(C(F)(F)F)cc3)nn(C)c2c1=O [Compound 18, N-(2-methyl-4-(2-(methylsulfonyl)propan-2-yl)phenyl)-2-(1-methyl-7-oxo-3-((4-(trifluoromethyl)phenyl)amino)-1,7-dihydro-6H-pyrazolo[4,3-d]pyrimidin-6-yl)acetamide] | –
200 to 1000 | 200 to 1000 | Cn1nc(Nc2ccc(C(F)(F)F)cc2)c2ncn(CC(=O)Nc3ccc(C(C)(C)C(=O)O)cc3)c(=O)c21 [Compound 19, 2-methyl-2-(4-(2-(1-methyl-7-oxo-3-((4-(trifluoromethyl)phenyl)amino)-1,7-dihydro-6H-pyrazolo[4,3-d]pyrimidin-6-yl)acetamido)phenyl)propanoic acid] | –
< 200 | < 200 | Cn1nc(Nc2ccc(C(F)(F)F)cc2)c2ncn(CC(=O)Nc3ccc(OCC(C)(C)O)cc3)c(=O)c21 [Compound 20, N-(4-(2-hydroxy-2-methylpropoxy)phenyl)-2-(1-methyl-7-oxo-3-((4-(trifluoromethyl)phenyl)amino)-1,7-dihydro-6H-pyrazolo[4,3-d]pyrimidin-6-yl)acetamide] | –
< 200 | < 200 | Cn1nc(Nc2ccc(C(F)(F)F)cc2)c2ncn(CC(=O)Nc3ccc(C(C)(C)C(N)=O)cc3)c(=O)c21 [Compound 21, 2-methyl-2-(4-(2-(1-methyl-7-oxo-3-((4-(trifluoromethyl)phenyl)amino)-1,7-dihydro-6H-pyrazolo[4,3-d]pyrimidin-6-yl)acetamido)phenyl)propanamide] | –
< 200 | < 200 | C[C@H](O)CO[C@H]1CC[C@H](NC(=O)Cn2cnc3c(Nc4ccc(C(F)(F)F)cc4)nn(C)c3c2=O)CC1 [Compound 22, N-((1S,4r)-4-((S)-2-hydroxypropoxy)cyclohexyl)-2-(1-methyl-7-oxo-3-((4-(trifluoromethyl)phenyl)amino)-1,7-dihydro-6H-pyrazolo[4,3-d]pyrimidin-6-yl)acetamide] | –
< 200 | < 200 | C[C@@H](O)CO[C@H]1CC[C@H](NC(=O)Cn2cnc3c(Nc4ccc(C(F)(F)F)cc4)nn(C)c3c2=O)CC1 [Compound 23, N-((1R,4r)-4-((R)-2-hydroxypropoxy)cyclohexyl)-2-(1-methyl-7-oxo-3-((4-(trifluoromethyl)phenyl)amino)-1,7-dihydro-6H-pyrazolo[4,3-d]pyrimidin-6-yl)acetamide] | –

SMILES | EC50 (human SF-1) [nM] | EC50 ([1]; R2C cells, EdU incorporation) [nM] | EC50 ([1]; R2C) [nM]
Cn1nc(Nc2ccc(C(F)(F)F)cc2)c2ncn(CC(=O)N[C@H]3CCC[C@H](OC(F)F)C3)c(=O)c21 (single isomer, unassigned) [Compound 43] | < 200 | – | < 200
Cn1nc(Nc2ccc(C(F)(F)F)cc2)c2ncn(CC(=O)N[C@@H]3CCC[C@@H](OC(F)F)C3)c(=O)c21 (single isomer, unassigned) [Compound 44] | < 200 | – | < 200
Cn1nc(Nc2ccc(C(F)(F)F)cc2)c2ncn(CC(=O)N[C@H]3CCC[C@@H](OC(F)F)C3)c(=O)c21 (single isomer, unassigned) [Compound 48] | < 200 | – | < 200
Cn1nc(Nc2ccc(C(F)(F)F)cc2)c2ncn(CC(=O)N[C@@H]3CCC[C@H](OC(F)F)C3)c(=O)c21 (single isomer, unassigned) [Compound 49] | < 200 | – | < 200
